Where two headings read alike, the source gives them in different places.
Columns and labels:
[1] = tested on: ethanol concentration in breath, feces, urine, blood and stomach; settings: for ethanol concentration, Feces / ethanol concentration, Stomach: * p < 0.05
Method: (§2) In Male Wistar rats, weighing 300 to 320 mg each, intragastric cannulas were inserted as described by Tsukamoto and French. Cannulas were tunnelled subcutaneously to the dorsal aspect of the neck and attached to infusion pumps by means of a spring-tether device and swivel allowing complete mobility of rats in metabolic cages.
(§3) A liquid diet described by Thompson and Reitz was used.
Concentration of ethanol in urine, which are representative of blood alcohol levels were measured daily. Rats were housed in metabolic cages that separated urine from feces, and urine was collected over 24 hours in bottles containing mineral oil to prevent evaporation.
ANOVA or Student's t-test was used for determination of statistical significance as appropriate. […] A p value less than 0.05 was selected before the study as the level of significance.

[2] = tested on: liver (steatosis, inflammation and necrosis)
Excerpt: Rats underwent liver biopsy and autopsy after 2 and 4 weeks of treatment with ethanol. Livers were formalin-fixed, embedded in paraffin and stained with hematoxylin and eosin to assess steatosis, inflammation and necrosis. Liver pathology was scored as described by Nanji et al. as follows: steatosis (the percent liver cells containing fat): <25%=1+; <50%=2+; <75%=3+, >75%=4+; inflammation and necrosis: 1 focus per low-power field=1+; 2 or more=2+.

[3] = tested on: rat liver (previously anoxic pericentral regions); experiment: cells; settings: for IC50: Rattus norvegicus
Method: Animals used: Male Sprague-Dawley rats weighing between 180-210 g and fed a Purina diet. Rats were fasted for 24 h prior to surgery.
Liver Perfusion: Rats were anesthetized with pentobarbital sodium (50 mg) before surgery and livers were removed surgically and perfused via a cannula inserted into the portal vein with Krebs-Henseleit bicarbonate buffer (pH 7.4, 37° C.) saturated with an oxygen-carbon dioxide (95:5) mixture in a non-recirculating system (Krebs-Henseleit, 1932). After surgery, livers were perfused at flow rates around 1 ml/g/min for 75 minutes (low-flow). Subsequently, livers were perfused at normal flow rates (4 ml/g/min) for 40 minutes (reflow).
Lactate dehydrogenase (LDH): LDH activity in the perfusate was determined using standard enzymatic techniques (Bergmeyer, 1988). […] After cooling, samples were centrifuged at 1000×g for 10 minutes and the absorbance of the supernatant was determined at 535 nm. Rates of release of LDH expressed per gram wet weight of liver per hour.
Trypan Blue Distribution Time and Histological Procedures: To assess microcirculation and cell death in the liver, trypan blue was infused into the liver at the end of all experiments at final concentrations of 0.2 mM (Belinsky et al., 1984). The time for the liver surface to turn evenly dark blue was recorded. Excess dye was removed by perfusion with Krebs-Henseleit buffer for an additional 10 minutes. Subsequently, livers were perfused with 1% paraformaldehyde for 10 minutes and fixed tissue was embedded in paraffin and processed for light microscopy. Sections were stained only with eosin, a cytoplasmic stain, so that trypan blue could be identified readily in the nuclei of damaged cells.
All nuclei of parenchymal cells in a zone radiating five cells from either periportal or pericentral regions were identified as trypan blue-positive or negative. The percentage of staining was calculated from the number of stained nuclei divided by the total number of cells in any given region.
Statistical Analysis: Student's-t-test or ANOVA was used where appropriate. Differences were considered significant when the p-value was less than 0.05.

[4] = tested on: lipopolysaccharide (LPS) endotoxic shock in rats; settings: for mortality: 5% glycine diet
Method: (§1) The rats were then injected lipopolysaccharide (LPS; 10, 20 and 30 mg/kg resp.) from the tail vein and mortality was assessed 24 hours after the injection.

in vivo = settings: rat, iv, 10 mg/kg
[5] = tested on: AST (Aspartate Aminotransferase); settings: glycine diet; LPS 10 mg/kg; survivors; untreated fed 2000 IU/L
Method: as §1
b) From the survivors, the liver enzyme AST (Aspartate Aminotransferase; a transaminase) was measured as indication for liver damage.

[6] = tested on: Asparate Aminotransferase (AST); settings: for serum AST: 4 weeks, liquid control diet 183 IU/L
Method: as §2, §3
Blood was collected via the tail vein once a week and centrifuged. Serum was stored at -20° C. in a microtube until assayed for AST by standard enzymatic procedures.

[7] = tested on: tumour necrosis factor (TNF)
liver and lung = settings: glycine diet; 24 hr after LPS 10 mg/kg
Method: d) Liver and lung specimens for histology were taken 24 hr after injection of LPS (10 mg/kg) and hematoxylin-eosin stained.

[8] = tested on: partial hepatic ischemia/reperfusion and LPS injection in rats; settings: glycine diet 3 days; 90 min partial hepatic ischemia/reperfusion; LPS 5 mg/kg; 24 hours; p<0.05; control 0 of 4
Method: A sublethal dose of LPS (5 mg/kg) was injected via tail vein 6 hr after reperfusion.

variety of cells = settings: anoxia, potassium cyanide and t-butyl hydroxide; cited from earlier work
infection = settings: in vivo
suspended hepatocytes = settings: injury by calcium ionophores or oxidative stress; cited from earlier work
[9] = body weight and ethanol intake during ethanol treatment; type: in vivo, Male Wistar rats; settings: liquid glycine diets; 4 weeks of ethanol
Method: as §2, §3

liver graft = settings: added to liver graft storage solution; dogs; cited from earlier work
[10] = Table 1, Mean ± S.E.M., ethanol with or without 5% glycine
[11] = Table 1, Mean ± S.E.M., ethanol with or without 5% glycine, ** p < 0.01
[12] = Table 1, Mean ± S.E.M., ethanol with or without 5% glycine, *** p < 0.001
[13] = liquid 2% and 5% glycine diet, 4 weeks

CCO [ethanol, reference compound]
ethanol concentration, Feces [1, 10]: 82 ± 21
ethanol concentration, Stomach [1, 10]: 761 ± 625
ethanol concentration, Blood Tail Vein [1, 11]: 199 ± 45
ethanol concentration, Blood Portal [1, 12]: 357 ± 65
ethanol concentration, Breath [1, 12]: 108 ± 12
ethanol concentration, Urine A.M. ([1]; rat, in vivo, po): 184 ± 12
urine alcohol level, upper end of cyclic fluctuation ([1]; rat, in vivo, po): greater than 300 mg/dl

NCC(=O)O [glycine]
fatty changes (steatosis) [2, 13]: attenuated
necrosis and inflammation [2, 13]: almost totally absent
inflammation (statistics) ([2]; liquid glycine diets): only a tendency for reduction
reductions of steatosis and necrosis (statistics) ([2]; liquid glycine diets): statistically significantly
liver injury due to chronic intragastric ethanol exposure ([2]; rat): prevents liver injury
LDH release and cell death during reperfusion (in words) [3]: minimized LDH release and cell death almost completely
MDA production during reperfusion [3]: tends to decrease with glycine, changes are not statistically significant
oxygen uptake (indicator of mitochondrial function) [3]: not altered
trypan blue distribution time ([3]; 2 mM glycine, 40 minutes of reperfusion, control about 460 seconds): about 250 seconds
trypan blue distribution time (in words) ([3]; 5 and 40 minutes after reflow): reduced significantly at 5 and 40 minutes after reflow
change of trypan blue distribution time at later vs earlier time point ([3]; 40 vs 5 minutes after reflow): about 2 fold
trypan blue distribution time ([3]; 5 minutes after reperfusion, control 225 seconds, p<0.05, n=5): about 190 seconds
IC50 ([3]; 40 min, read-out: half maximal decrease of trypan blue distribution time, 40 minutes of reflow): 180 µM
IC50 ([3]; read-out: half-maximal decrease of LDH release, rat liver, glycine infused from 10 min before reflow): 180 µM
IC50 ([3]; read-out: half-maximal effect (trypan blue distribution time; cytoprotective effect), reflow liver perfusion): 180 µM
enzyme (LDH) release, dose dependence (in words) ([3]; glycine 0.06-2 mM): minimizes enzyme release in a dose-dependent manner
protection in the rat liver reperfusion model ([3]; physiological concentrations of 240-300 mmol (in humans)): more than half maximal protection
protection against LPS mortality ([4]; 5% glycine diet 3 days, LPS 10 mg/kg, control 50% mortality, p<0.05): 100%
mortality ([4]; LPS 20 mg/kg, control 70%): 30%
mortality ([4]; LPS 30 mg/kg, control 100%): 90%
concentration at 6 h (in vivo): 1730 ± 515 µM
AST level [5]: markedly and significantly reduced
increase of serum AST (in words) ([6]; both glycine treatments, every point during the study): attenuated significantly
serum AST ([6]; liquid 2% glycine diet): 66 IU/L
serum AST ([6]; liquid 5% glycine diet): 100 IU/L
ischemic/endotoxic liver and organ damage, activation of Kupffer cells (Kupffer cells): prevents or at least substantially suppresses
time of serum TNF peak after injection ([7]; 5% glycine diet, LPS 10 mg/kg, control 60 min): 150 min
suppression of serum TNF increase ([7]; 5% glycine diet, LPS 10 mg/kg, p<0.05, control over 6000 pg/ml): at least 50%
release of TNF into the systemic circulation ([7]; following endotoxic shock): significantly reduces the release of TNF
liver necrosis (histology) (liver and lung): less necrosis in the liver
pulmonary edema (histology) (liver and lung): less pulmonary edema
survival [8]: 5 rats out of 6
cell damage (variety of cells): reduce cell damage
protective effect compared with fish oil (infection): more profound and acute than that obtainable by fish oil treatment
protection of suspended hepatocytes (suspended hepatocytes): not found to protect
ethanol concentration, Feces [1, 10]: 15 ± 11
ethanol concentration, Stomach [1, 10]: 26
ethanol concentration, Blood Tail Vein [1, 11]: 21 ± 13
ethanol concentration, Urine A.M. [1, 11]: 26 ± 25
ethanol concentration, Blood Portal [1, 12]: 10 ± 7
ethanol concentration, Breath [1, 12]: 5 ± 4
ethanol concentration, Urine 24 hr [1, 12]: 24 ± 8
alcohol in stomach contents (in words) ([1]; glycine-treated rats): reduced dramatically
reduction of the mean urine alcohol concentration ([1]; liquid 2% glycine diet): 50%
reduction of the mean urine alcohol concentration ([1]; liquid 5% glycine diet): 70%
daily urine alcohol concentration (in words) ([1]; liquid glycine diets): very low but were still cyclic
transfer of alcohol from the stomach into the blood ([1]; rat, in vivo): prevents the transfer of alcohol from the stomach into the blood
body weight [9]: no significant differences in body weight
survival (liver graft): did not improve survival
